Experimental data: ChEMBL document CHEMBL4828777, “Effect of the Chromone Core Substitution of Dirchromone on the Resultant Biological Activities” (J Nat Prod, 2021)
Values after ≈ are worked out from the molar mass of the structure shown.

How the values were obtained:
Staphylococcus aureus = assay: Antibacterial activity against Staphylococcus aureus ATCC 25923 assessed as reduction in bacterial growth incubated for 24 hrs by microdilution method; format: functional
Candida albicans = assay: […] activity against Candida albicans ATCC 10231 assessed as reduction in fungal growth incubated for 24 hrs by microdilution method; format: functional
DLD-1 = assay: Cytotoxicity against human DLD-1 cells assessed as reduction in cell viability incubated for 48 hrs by Hoechst staining based assay; format: functional; details: DLD-1, 48 h
A549 = assay: Cytotoxicity against human A549 cells assessed as reduction in cell viability incubated for 48 hrs by Hoechst staining based assay; format: functional; details: A549, 48 h
[1] = Cytotoxicity against human WS1 cells assessed as reduction in cell viability incubated for 48 hrs by Hoechst staining based assay; details: WS1, 48 h

| Compound | MIC90 (Staphylococcus aureus) [µM] | MIC90 (Candida albicans) [µM] | IC50 (DLD-1) [µM] | IC50 (A549) [nM] | IC50 [1] [nM] |
| --- | --- | --- | --- | --- | --- |
| Cc1ccc2c(=O)cc(/C=C/[S+](C)[O-])oc2c1 (racemic) | 10 (≈ 2.48 µg/mL) | > 100 | 7 | 2000 | 1900 |
| Cc1cccc2oc(/C=C/[S+](C)[O-])cc(=O)c12 (racemic) | 23 (≈ 5.71 µg/mL) | > 100 | 5.5 | 1300 | 1900 |
| COc1cccc2oc(/C=C/[S+](C)[O-])cc(=O)c12 (racemic) | 43 (≈ 11.4 µg/mL) | > 100 | > 10 | 3800 | 3800 |
| CC(C)C(=O)Oc1ccc2oc(/C=C/[S+](C)[O-])cc(=O)c2c1 (racemic) | 9 (≈ 2.88 µg/mL) | > 100 | 9.1 | 2400 | 1900 |
| CC(C)COc1ccc2oc(/C=C/[S+](C)[O-])cc(=O)c2c1 (racemic) | 5.7 (≈ 1.75 µg/mL) | 13.4 (≈ 4.11 µg/mL) | 5 | 1100 | 1200 |
| C[S+]([O-])/C=C/c1cc(=O)c2cc3c(cc2o1)OCO3 (racemic) | 39 (≈ 10.9 µg/mL) | > 100 | 6 | 2100 | 2000 |
| CCCC(=O)Oc1ccc2oc(/C=C/[S+](C)[O-])cc(=O)c2c1 (racemic) | 7.2 (≈ 2.31 µg/mL) | > 100 | 8.7 | 2200 | 1500 |
| C[S+]([O-])/C=C/c1cc(=O)c2ccccc2o1 (racemic) | 9 (≈ 2.11 µg/mL) | > 100 | 8 | 1900 | 2000 |
| Cc1ccc2oc(/C=C/[S+](C)[O-])cc(=O)c2c1 (racemic) | 10 (≈ 2.48 µg/mL) | > 100 | 7 | 1700 | 1800 |
| CC(C)CCOc1ccc2oc(/C=C/[S+](C)[O-])cc(=O)c2c1 (racemic) | 2.8 (≈ 0.897 µg/mL) | 8.4 (≈ 2.69 µg/mL) | 4.1 | 1000 | 850 |
| CC(C)Oc1ccc2oc(/C=C/[S+](C)[O-])cc(=O)c2c1 (racemic) | 11.1 (≈ 3.25 µg/mL) | 84 (≈ 24.6 µg/mL) | 8 | 1500 | 1400 |
| C[S+]([O-])/C=C/c1cc(=O)c2cc(O)ccc2o1 (racemic) | 24 (≈ 6.01 µg/mL) | > 100 | > 10 | 10500 | 7500 |
| C[C@@H]1[C@H](O)[C@@H](C)/C=C/C=C/C=C/C=C/C=C/C=C/C=C/[C@H](O[C@@H]2O[C@H](C)[C@@H](O)[C@H](N)[C@@H]2O)C[C@@H]2O[C@](O)(C[C@@H](O)C[C@@H](O)[C@H](O)CC[C@@H](O)C[C@@H](O)CC(=O)O[C@H]1C)C[C@H](O)[C@H]2C(=O)O [AMPHOTERICIN B] | – | 1.4 (≈ 1.29 µg/mL) | – | – | – |
| COc1cccc2c(=O)cc(/C=C/[S+](C)[O-])oc12 (racemic) | 11 (≈ 2.91 µg/mL) | > 100 | 9 | 2200 | 1900 |
| CCCCOc1ccc2oc(/C=C/[S+](C)[O-])cc(=O)c2c1 (racemic) | 5.4 (≈ 1.65 µg/mL) | 14.1 (≈ 4.32 µg/mL) | 4.8 | 1400 | 1100 |
| CCC(=O)Oc1ccc2oc(/C=C/[S+](C)[O-])cc(=O)c2c1 (racemic) | 10 (≈ 3.06 µg/mL) | > 100 | 9 | 2400 | 2100 |
| C[S+]([O-])/C=C/c1cc(=O)c2ccc3ccccc3c2o1 (racemic) | 4.8 (≈ 1.36 µg/mL) | > 100 | 7 | 1400 | 1900 |
| C[S+]([O-])/C=C/c1cc(=O)c2cc(OC(=O)C(C)(C)C)ccc2o1 (racemic) | 10 (≈ 3.34 µg/mL) | 71 (≈ 23.7 µg/mL) | 8 | 1600 | 1000 |

| Compound | MIC90 (Staphylococcus aureus) [µM] | MIC90 (Candida albicans) [µM] | IC50 (DLD-1) [µM] | IC50 (A549) [nM] | IC50 [1] [nM] |
| --- | --- | --- | --- | --- | --- |
| CCOc1ccc2oc(/C=C/[S+](C)[O-])cc(=O)c2c1 (racemic) | 11.4 (≈ 3.17 µg/mL) | 67 (≈ 18.6 µg/mL) | 4.9 | 1500 | 2000 |
| C[S+]([O-])/C=C/c1cc(=O)c2cc(F)ccc2o1 (racemic) | 5.3 (≈ 1.34 µg/mL) | > 100 | 7 | 2100 | 1700 |
| C[S+]([O-])/C=C/c1cc(=O)c2cc(C#N)ccc2o1 (racemic) | 5.6 (≈ 1.45 µg/mL) | > 100 | > 10 | > 10000 | > 10000 |
| COc1ccc2oc(/C=C/[S+](C)[O-])cc(=O)c2c1 (racemic) | 6.1 (≈ 1.61 µg/mL) | > 100 | 5.7 | 1600 | 1300 |
| Cc1c(/C=C/[S+](C)[O-])oc2ccccc2c1=O (racemic) | 20 (≈ 4.97 µg/mL) | > 100 | 7.2 | 1500 | 2100 |
| CCCCC(=O)Oc1ccc2oc(/C=C/[S+](C)[O-])cc(=O)c2c1 (racemic) | 5.1 (≈ 1.71 µg/mL) | 47 (≈ 15.7 µg/mL) | 6.7 | 2400 | 1800 |
| C[S+]([O-])/C=C/c1cc(=O)c2cc(Br)ccc2o1 (racemic) | 2.5 (≈ 0.783 µg/mL) | 47 (≈ 14.7 µg/mL) | 4.5 | 1100 | 1000 |
| COc1ccc2c(=O)cc(/C=C/[S+](C)[O-])oc2c1 (racemic) | 20 (≈ 5.29 µg/mL) | > 100 | 7.8 | 2200 | 1800 |
| CC(C)CC(=O)Oc1ccc2oc(/C=C/[S+](C)[O-])cc(=O)c2c1 (racemic) | 5.1 (≈ 1.71 µg/mL) | 72 (≈ 24.1 µg/mL) | 6.1 | 2300 | 1700 |
| CCCOc1ccc2oc(/C=C/[S+](C)[O-])cc(=O)c2c1 (racemic) | 11 (≈ 3.22 µg/mL) | 39 (≈ 11.4 µg/mL) | 6.2 | 1100 | 1900 |
| C[S+]([O-])/C=C/c1cc(=O)c2cc(Cl)ccc2o1 (racemic) | 2.7 (≈ 0.726 µg/mL) | > 100 | 6.5 | 1700 | 1600 |
| CCCCCOc1ccc2oc(/C=C/[S+](C)[O-])cc(=O)c2c1 (racemic) | 4.3 (≈ 1.38 µg/mL) | 7 (≈ 2.24 µg/mL) | 6.6 | 1600 | 1700 |
| GENTAMICIN | 0.09 | – | – | – | – |
| CC(=O)Oc1ccc2oc(/C=C/[S+](C)[O-])cc(=O)c2c1 (racemic) | 11 (≈ 3.22 µg/mL) | > 100 | > 10 | 4100 | 2500 |
| COc1cc([C@@H]2c3cc4c(cc3[C@@H](O[C@@H]3O[C@@H]5CO[C@@H](C)O[C@H]5[C@H](O)[C@H]3O)[C@H]3COC(=O)[C@H]23)OCO4)cc(OC)c1O [ETOPOSIDE] | – | – | 0.57 | 4800 | 47000 |
| C[S+]([O-])/C=C/c1cc(=O)c2c(ccc3ccccc32)o1 (racemic) | 18 (≈ 5.12 µg/mL) | > 100 | 4.3 | 940 | 880 |
| C[S+]([O-])/C=C/c1oc2ccccc2c(=O)c1Cc1ccccc1 (racemic) | 2.9 (≈ 0.941 µg/mL) | > 100 | 5.1 | 1300 | 1200 |
| Cc1cccc2c(=O)cc(/C=C/[S+](C)[O-])oc12 (racemic) | 10 (≈ 2.48 µg/mL) | > 100 | 6.8 | 1700 | 2200 |
